Patent US5939403A, “Keratan sulfate oligosaccharide fraction and pharmaceutical containing the same” (Seikagaku Corporation, priority 1994, dated 1999)
Counter-ions that a name gives are not always drawn.

How the values were obtained:
papain-induced arthritis = assay: Papain-induced unilateral arthritis model, intramuscular administration (volume of synovial fluid); type: in vivo, Japanese white rabbits (female); conditions: for quantity of synovial fluid (FIG. 5, result in words): 10 rabbits per group; for Volume of Synovial Fluid: 7 days, control 722, normal 433
Method: The anti-inflammatory effect of the keratan sulfate oligosaccharide with rabbits of the papain-induced arthritis model was examined using the volume of synovial fluid as an indication.
Seven days after the injection, the blood was drawn from the auricular artery, and plasma containing heparin was separated. After drawing the blood, the rabbits were anatomized and the both knee joint were separated. The articular cavity was washed with 2 ml of saline three times to recover the synovial fluid. The calcium concentrations in the plasma and the recovered synovial fluid were determined, and the volume of synovial fluid was calculated from the following formula.
Volume of Synovial Fluid (ul/articulation)=Amount of Calcium in Recovered
Synovial Fluid (μg/articulation)/Concentration of Calcium in Plasma
Into the articular cavity of left joint of Japanese white rabbits (female) of 3 kg weight, 150 μl of the saline solution of papain (1%) was injected, and the right joint was not treated to prepare the unilateral arthritis model. One day after injecting papain, 150 μl of the PBS solution of the purified keratan sulfate tetrasaccharide (I) (2%, 1%, and 0.5% solution; 1.0 mg/kg, 0.5 mg/kg, and 0.25 mg/kg, respectively) which was prepared in Example 1 was injected into the hip muscle of the left side (hereinafter referred to as "the keratan sulfate tetrasaccharide (I) administered group"). As the control, 150 μl of PBS was injected to the arthritis model instead of the PBS solution of the keratan sulfate tetrasaccharide (I) and hereinafter these rabbits are referred to as "the control group". And the normal rabbits not subjected to the papain injection (hereinafter referred to as "the normal group") were also examined in the same manner hereinafter. Seven days after the injection, the volume of synovial fluid was calculated in the same manner as in (1-1).
The examination was performed in the same manner as in (1-3) except for using 150 μl of the PBS solution of the purified keratan sulfate tetrasaccharide (I), the keratan sulfate pentasaccharide (II), and the keratan sulfate disaccharide (III) (1% solution; 0.5 mg/kg) which were prepared in Example 1. In the figure, *, **, and *** represent that they have the significant difference with p<0.05, p<0.01, and p<0.001, respectively. And in each group, 10 rabbits were used for the examination.

allergic conjunctivitis = assay: TDI-induced allergic conjunctivitis model, eye dropping; type: in vivo, female Hartley guinea pigs
Method: A variety of the keratan sulfate oligosaccharide was dropped in the eyes of the guinea pigs subjected to the induction of allergic conjunctivitis to examine the effect thereof.
Toluene diisocyanate (hereinafter referred to as TDI) was diluted with ethyl acetate to a concentration of 10%. To the bilateral vestibule of noses of 10 female Hartley guinea pigs of from about 900 to 1,000 g weight, the 10% TDI (10 μl/animal) obtained above was applied once a day for five days to prepare the TDI sensitization models. The PBS solution of the purified keratan sulfate tetrasaccharide (I) ([…]) which was prepared in Example 1 was dropped in the left eyes of the TDI sensitization models, while PBS was dropped in the right eyes as the control. The dose of dropping was one drop (48+4.6 μl (S.D.)) each from the eye dropper. After 10 minutes, 6.5 μl of 10% TDI was dropped to the both eyes to induce conjunctivitis. After five minutes standing, furthermore, the PBS solution of the keratan sulfate tetrasaccharide (I) ([…]) was dropped in the left eyes, and PBS was dropped in the right eyes. After 15 minutes, observation of the both eyes were carried out. The degree of conjunctivitis was evaluated regarding three items of hyperemia, edema and lacrimation into four grades such as point 0, +1, +2 and +3. In the figure, * represents that it has the significant difference with p<0.05 (wherein "p" means a level of significance by the .chi.^2 test).
The PBS solution of the purified keratan sulfate disaccharide (III), the keratan sulfate tetrasaccharide (I), and the keratan sulfate pentasaccharide (II) (6.0 mg/ml, respectively)which were prepared in Example 1 described above as the test substances were dropped, respectively, in the left eyes of the TDI sensitization models of 10 animals a group each which were prepared in the same manner as in (1) described above, and PBS was dropped in the right eyes as the control. The degree of conjunctivitis was evaluated in the same manner as in (1) described above. In the figure, * represents that it has the significant difference with p<0.05 (wherein "p" means a level of significance by the .chi.^2 test).
The PBS solution containing the purified keratan sulfate tetrasaccharide (I) which was prepared in Example 1 described above, at varieties of concentrations (6 mg/ml, 3 mg/ml, 1.5 mg/ml or 0.75 mg/ml) as the test substance, were dropped, respectively, in the left eyes of the TDI sensitization models of 10 animals a group each which were prepared in the same manner as in (1) described above, and PBS was dropped in the right eyes as the control. The degree of conjunctivitis was evaluated in the same manner as in (1) described above. In the figure, * represents that it has the significant differnce with p<0.05 (wherein "p" means a level of significance by the .chi.^2 test).

[1] = 0.5 mg/kg intramuscular, unilateral model
[2] = 6.0 mg/ml eye drop, comparison of oligosaccharides

SMILES	quantity of synovial fluid (FIG. 5, result in words) (papain-induced arthritis; [1])	degree of conjunctivitis: hyperemia, edema and lacrimation (FIG. 12) (allergic conjunctivitis; [2])	Volume of Synovial Fluid (papain-induced arthritis; 0.25 mg/kg intramuscular, n = 9, SD 70.6, p < 0.05) [µL]	Volume of Synovial Fluid (papain-induced arthritis; 0.5 mg/kg intramuscular, n = 10, SD 68.9, p < 0.01) [µL]	Volume of Synovial Fluid (papain-induced arthritis; 1.0 mg/kg intramuscular, n = 9, SD 53.1, p < 0.01) [µL]	volume of synovial fluid (result in words) (papain-induced arthritis; 0.25, 0.5, 1.0 mg/kg intramuscular, unilateral model)	degree of conjunctivitis: edema (FIG. 12) (allergic conjunctivitis; 6.0 mg/ml eye drop, comparison of oligosaccharides, p<0.05)	degree of conjunctivitis: edema (FIG. 13) (allergic conjunctivitis; 6 mg/ml, 3 mg/ml, and 1.5 mg/ml eye drop, p<0.05)	degree of conjunctivitis: hyperemia, edema and lacrimation (FIG. 11) (allergic conjunctivitis; 100 mg/ml eye drop)	degree of conjunctivitis: edema (FIG. 11) (allergic conjunctivitis; 100 mg/ml eye drop, p<0.05)	degree of conjunctivitis: hyperemia, edema and lacrimation (FIG. 13) (allergic conjunctivitis; 6, 3, 1.5 and 0.75 mg/ml eye drop)
CC(=O)N[C@H]1C(O)O[C@H](COS(=O)(=O)O)[C@@H](O[C@@H]2O[C@H](COS(=O)(=O)O)[C@H](O)[C@H](O)[C@H]2O)[C@@H]1O (stereo partly drawn) [keratan sulfate disaccharide (III), Gal(6S)β1-4GlcNAc(6S)]	significantly less than that in the control group	tended to show inhibition in all the items									
CC(=O)N[C@H]1[C@H](O[C@H]2[C@@H](O)[C@@H](COS(=O)(=O)O)O[C@@H](O[C@H]3[C@H](O)[C@@H](NC(C)=O)C(O)O[C@@H]3COS(=O)(=O)O)[C@@H]2O)O[C@H](COS(=O)(=O)O)[C@@H](O[C@@H]2O[C@H](COS(=O)(=O)O)[C@H](O)[C@H](O)[C@H]2O)[C@@H]1O (stereo partly drawn) [keratan sulfate tetrasaccharide (I), Gal(6S)β1-4GlcNAc(6S)β1-3Gal(6S)β1-4GlcNAc(6S)]	significantly less than that in the control group	tended to show inhibition in all the items	619	597	528	significantly less than that in the control group	shows a significant inhibitory effect on edema	showed a significant inhibitory effect on edema	tended to show inhibition in all the items	significantly inhibited edema compared with the control	tended to show inhibition in all the items
